Data taken from patent US10799456B2, “Multiple drug lipid nanoparticle composition and related methods for extended drug levels in blood and lymph tissue” (priority 2015, dated 2020).

Experiments:
[1] = cited from earlier work
[2] = Octanol-buffer distribution coefficient (shake-flask); type: physicochemical; conditions: room temperature
Protocol: The octanol-buffer drug distribution coefficient at room temperature was determined by a small-scale, shake-flask method described by Dittert L W, et al. Phase Solubility Technique in Studying the Formation of Complex Salts of Triamterene. Journal of pharmaceutical sciences. […] Briefly, phosphate-buffered saline (PBS) at pH 3, 5, and 7.4 was used as the aqueous phase. […] The mixture was centrifuged at 14,000 rpm (18,078 g) (Beckman Coulter™ Microfuge® 18 centrifuge, Beckman Coulter Inc., Brea, Calif.) to separate octanol and the aqueous phase. The drug concentration in the two phases was determined with high-performance liquid chromatography tandem mass spectrometry (HPLC/MS/MS). The distribution coefficient was calculated as the ratio of the drug concentration in the octanol phase to the drug concentration in the aqueous phase. Triplicate samples were used at each pH.

[3] = Particle size by photon correlation spectroscopy; type: physicochemical
Protocol: The mean particle size of lipid-drug nanoparticles and liposome control was determined by photon correlation spectroscopy (PCS) using a NICOMP™ 380ZLS instrument (NICOMP Particle Sizing Systems, Santa Barbara, Calif.). […] Samples were diluted with the same buffer to an identical final volume to analyze concentration effects. The light scattering data were analyzed based on intensity-weight NICOMP size distribution and expressed as a mean±SD.
Briefly, lipids and protease inhibitors were dissolved in chloroform:ethanol (3:1 v/v) and PMPA was added from a stock solution of 30 mg/ml in aqueous 150 mM NaHCO3. Solvent was removed by rotary evaporation and vacuum desiccation. The dry film was rehydrated to 200 mM lipid in 0.4% NaCl with 20 mM NaHCO3 buffer at 60° C. Particle size was reduced at 60° C. by bath sonication (laboratory scale) or high-pressure homogenization using an Emulsiflex-05 (Avestin, Ottawa, Canada) (clinical scale). LNPs were maintained at 60° C. to anneal for 30 min prior to cooling and stored at 4° C. Particle size was determined by photon correlation spectroscopy using a NICOMP 380 ZLS (Particle Sizing Systems, Santa Barbara, Calif.).

[4] = Plasma time course of ATV/RTV/TFV lipid nanoparticles in primates; type: in vivo, Macaca nemestrina; conditions: male, Macaca nemestrina, in vivo, sc
Protocol: All animal procedures were performed under an approved protocol reviewed by the University of Washington Institutional Animal Care and Use Committee. […] ATV, RTV, and TFV in the plasma were extracted in duplicate and analyzed with a liquid chromatography-mass spectrometry assay with a validated reverse phase HPLC/MS/MS method, similar to that of lopinavir (LPV), RTV, and TFV. […] Antimicrobial agents and chemotherapy. 2014. The linear trapezoidal method was used to calculate the area under the plasma drug concentration-time curve (AUC) for ATV, RTV, and TFV during the time course, which was close to 168 h post-dosing. […] All drugs in buffer and plasma were analyzed using a validated HPLC/MS/MS analytical method, capable of analyzing […], and TFV. The one-step analysis for LPV, RTV, and TFV was published previously. […] Antimicrobial agents and chemotherapy. 2014. Briefly, the HPLC system was outfitted with a Shimadzu 20AD HPLC (Shimadzu Scientific Instruments, Inc., Pleasanton, Calif.). […] Multiple reaction monitoring (MRM) was used to detect transition ions from a specific precursor ion to product ion. The analytes were detected using the following m/z transitions: 705.5/168.2 for ATV, 548.3/392.3 for DRV, 721.3/296.1 for RTV, 288.1/176 for TFV, and 238.1/193.2 for cyheptamide.

[5] = Drug incorporation efficiency into lipid-drug nanoparticles (dialysis); type: physicochemical; conditions: for Incorporation efficiency (%) / Drug incorporation (% total): preclinical 45 mL scale
Protocol: J Acquir Immune Defic Syndr. […] Journal of pharmaceutical sciences. […] The AAPS journal. […] Residual solvent was removed overnight by vacuum desiccation. The dried lipid-drug film was then rehydrated with 0.9% NaCl containing 20 mM sodium bicarbonate (pH 7.4). The lipid-drug samples were allowed to hydrate at 60° C. for 2 h. Then samples were sonicated (laboratory scale) or homogenized (preclinical scale) to achieve a homogenous suspension.
The incorporation efficiency was calculated as the ratio of the amount of incorporated drug over the total amount of drug loaded multiplied by 100%.

[6] = cited from earlier work; for Hydrophobicity (Log P): Tables 20 and 21; for LogP: Tables 18 and 19
[7] = Drug incorporation/encapsulation (association) efficiency of multi-drug LNPs by dialysis; type: physicochemical
Protocol: The anti-HIV LNP formulations contain both unbound drug and drugs bound to lipid nanoparticles. […] Drugs were quantified by LC-MS/MS using acetonitrile precipitation. Encapsulation efficiency (EE) was calculated as follows: […]

[8] = % Drug association to particles by assembly method; type: physicochemical
Description: Select one or two drugs hydrophilic and water soluble (Class 2) drugs listed in Table 19 (for example, tenofovir and/or emtricitabine and/or lamivudine). • 3. Select the excipient combination (for example, 9 parts DSPC and 1 part PEG-DSPE). • 4. Prepare a single-phase miscible solvent that enables full solubilization of the chosen water-insoluble Class 1 drugs and water soluble Class 2 drugs plus the excipients from step 3. Examples include CHCl3:Methanol:Water (65:35:4); CHCl3:Ethanol:Water (65:35:4); CHCl3:Propanol:Water (65:35:4); and CHCl3:Hexanol:Water (65:35:4). • 5. The components in Steps 1, 2 and 3 are solubilized with the miscible solvent in step 4. • 6. The drugs (steps 1 and 2) as well as excipients (step 3) and the miscible solvent (step 4) are dried under reduced pressure with assistance of a combination of heat, reduced pressure and/or aerosolization to provide for uniformity and efficiency of drying. • 7. The dehydrated composition is heated above gel-to-liquid phase transition temperature of the excipient mixture (e.g., 50° C.). • 8. A buffered saline solution is prepared and the temperature is equilibrated to the same temperature as dehydrated composition. • 9. The buffered saline solution and dehydrated composition are gradually combined and maintained at the defined (e.g., 50° C.) for 3 hr. • 10. The resulting hydrated multi-drug lipid nanoparticles are size-reduced by sheering or forcing through small orifice or pressurized filter apparatus while maintaining at the defined temperature (in liquid phase of lipidic excipients).

[9] = Plasma drug exposure of three multi-drug lipid formulations vs free drug in primates; conditions: monkey, in vivo, sc, AUC Lipid Drug 0-168 h, LPV/EFV/TFV combination
[10] = reported values; cited from earlier work

SMILES: COC(=O)N[C@H](C(=O)N[C@@H](Cc1ccccc1)[C@@H](O)CN(Cc1ccc(-c2ccccn2)cc1)NC(=O)[C@@H](NC(=O)OC)C(C)(C)C)C(C)(C)C [Atazanavir (ATV), Atazanavir]
- Water solubility @ 25° C. [1]: 0.11 µg/mL
- Log D (measured) ([2]; pH 3, octanol/PBS): 3.40 ± 0.31
- Log D (measured) ([2]; pH 5, octanol/PBS): 4.66 ± 0.27
- Log D (measured) ([2]; pH 7.4, octanol/PBS): 5.77 ± 0.03
- Particle size (nm) ([3]; lipid:drug 5:1 mol/mol): 68.2 ± 7.1 nm
- Particle size (nm) ([3]; lipid:drug 8:1 mol/mol): 56.3 ± 4.1 nm
- Particle size (nm) ([3]; lipid:drug 20:1 mol/mol): 34.6 ± 3.1 nm
- AUC fraction (% total) 8-168 h [4]: 95.3%
- Incorporation efficiency (%) ([5]; LNPs with ATV + RTV + TFV (2:1:3), laboratory 0.2 mL scale): 104.2 ± 3.2%
- Incorporation efficiency (%) / Drug incorporation (% total) ([5]; LNPs with ATV + RTV + TFV (2:1:3)): 85.5 ± 8.2%
- Incorporation efficiency (%) / Drug incorporation (% total) ([5]; LNPs with ATV + RTV + TFV (2:1:3), listed as atazanavir): 85.5±8.2%
- Incorporation efficiency (%) ([5]; LNPs with ATV + RTV, laboratory scale, lipid:drug 8:1): 93.5 ± 6.6%
- Incorporation efficiency (%) ([5]; LNPs with ATV, laboratory scale, lipid:drug 8:1): 100.5 ± 8.2%
- Incorporation efficiency (%) ([5]; lipid:drug 5:1 mol/mol, DSPC:DSPE-mPEG2000 8:2): 96.5 ± 2.6%
- Incorporation efficiency (%) ([5]; lipid:drug 8:1 mol/mol, DSPC:DSPE-mPEG2000 8:2): 96.2 ± 3.8%
- Incorporation efficiency (%) ([5]; lipid:drug 20:1 mol/mol, DSPC:DSPE-mPEG2000 8:2): 97.4 ± 1.8%
- Hydrophobicity (Log P) [6]: 5.6
- % particle-bound ([7]; Combination 2, lipid:ATZ:RTV:TFV 115:10:5:15, large scale): (91.9 ± 6.8) %
- % Drug Association to Particles, LNPs from mixture of dual solvent method [8]: 90-100%
- % Drug Association to Particles, LNPs from single, miscible solvent method [8]: 90-100%

SMILES: C[C@@H]1CCO[C@H]2Cn3cc(C(=O)NCc4ccc(F)cc4F)c(=O)c(O)c3C(=O)N12 [Dolutegravir]
- Water solubility @ 25° C. [1]: 95 µg/mL
- LogP [6]: 2.4

SMILES: O=C1Nc2ccc(Cl)cc2[C@@](C#CC2CC2)(C(F)(F)F)O1 [Efavirenz]
- Water solubility @ 25° C. [1]: 0.000093 µg/mL
- AUC [9]: 31200 ± 2700 ng·h/mL
- LogP [6]: 4
- Hydrophobicity (Log P) [6]: 4
- % particle-bound ([7]; Combination 3, lipid:LPV:EFV:TFV 200:26.6:20:40, large scale): (78.7) %
- % Drug Association to Particles, Liposomes [10]: 80%
- % Drug Association to Particles, LNPs from mixture of dual solvent method [8]: 76%
- % Drug Association to Particles, LNPs from single, miscible solvent method [8]: 80-90%

SMILES: Nc1nc(=O)n([C@@H]2CS[C@H](CO)O2)cc1F [Emtricitabine]
- Water solubility @ 25° C. [1]: 112000 µg/mL
- LogP [6]: −2.4
- Hydrophobicity (Log P) [6]: −1.4
- % Drug Association to Particles, Liposomes [10]: 1-2%
- % Drug Association to Particles, LNPs from mixture of dual solvent method [8]: 3-10%
- % Drug Association to Particles, LNPs from single, miscible solvent method [8]: 78-80%

SMILES: CC(C)(C)NC(=O)[C@@H]1CN(Cc2cccnc2)CCN1C[C@@H](O)C[C@@H](Cc1ccccc1)C(=O)N[C@H]1c2ccccc2C[C@H]1O [Indinavir]
- LogP [6]: 2.3

SMILES: Nc1ccn([C@@H]2CS[C@H](CO)O2)c(=O)n1 [Lamivudine]
- % Drug Association to Particles, Liposomes [10]: 4-5%
- % Drug Association to Particles, LNPs from mixture of dual solvent method [8]: 10-30%
- % Drug Association to Particles, LNPs from single, miscible solvent method [8]: 85%

SMILES: Cc1nnc(C(=O)NC(C)(C)c2nc(C(=O)NCc3ccc(F)cc3)c(O)c(=O)n2C)o1 [Raltegravir]
- Water solubility @ 25° C. [1]: 100 µg/mL
- LogP [6]: −0.39
- % Drug Association to Particles, LNPs from mixture of dual solvent method [8]: 9-25%
- % Drug Association to Particles, LNPs from single, miscible solvent method [8]: 75-89%

SMILES: Cc1cc(/C=C/C#N)cc(C)c1Nc1ccnc(Nc2ccc(C#N)cc2)n1 [Rilpivirine]
- Water solubility @ 25° C. [1]: 0.094 µg/mL
- Hydrophobicity (Log P) [6]: 4.5
- % Drug Association to Particles, Liposomes [10]: 14%
- % Drug Association to Particles, LNPs from mixture of dual solvent method [8]: 75-76%
- % Drug Association to Particles, LNPs from single, miscible solvent method [8]: 90-100%
